According to publication PMC4483627 (Marine Drugs, 2015):
Values joined by “and” are separate entries in the source; they are usually repeats but may differ in a detail not shown here. Equal values may be shown once. Positions of bridges follow the written chain, without caps; N, C: chain ends. Residues, ends and D or L forms follow the SMILES beside them.

Key:
Assay in all cases: cell-based
rat nAChR α3β2 [1] = target: T1, rat nAChR α3β2 (Rattus norvegicus, UniProt P04757+P12390); assay type: cell-based
T1 construct: expressed in transfected cells; host or cells: Xenopus oocytes injected with cRNA

rat nAChR α7 = target: T2, rat nAChR α7 (Rattus norvegicus, UniProt Q05941)
T2 construct: expressed in transfected cells; host or cells: Xenopus oocytes injected with cRNA

rat nAChR α3β4 = target: T3, rat nAChR α3β4 (Rattus norvegicus, UniProt P04757+P12392)
T3 construct: expressed in transfected cells; host or cells: Xenopus oocytes injected with cRNA

rat nAChR α9α10 = target: T4, rat nAChR α9α10 (Rattus norvegicus, UniProt P43144+Q9JLB5)
T4 construct: expressed in transfected cells; host or cells: Xenopus oocytes injected with cRNA

rat nAChR α2β4 = target: T5, rat nAChR α2β4 (Rattus norvegicus, UniProt P12389+P12392); conditions: for IC50: IC50 α2β4
T5 construct: expressed in transfected cells; host or cells: Xenopus oocytes injected with cRNA

rat nAChR α3β2 [2] = target: T1, rat nAChR α3β2; assay type: cell-based; remark: listed apart in the source

T4 sequence (P43144 26-479 limits assumed): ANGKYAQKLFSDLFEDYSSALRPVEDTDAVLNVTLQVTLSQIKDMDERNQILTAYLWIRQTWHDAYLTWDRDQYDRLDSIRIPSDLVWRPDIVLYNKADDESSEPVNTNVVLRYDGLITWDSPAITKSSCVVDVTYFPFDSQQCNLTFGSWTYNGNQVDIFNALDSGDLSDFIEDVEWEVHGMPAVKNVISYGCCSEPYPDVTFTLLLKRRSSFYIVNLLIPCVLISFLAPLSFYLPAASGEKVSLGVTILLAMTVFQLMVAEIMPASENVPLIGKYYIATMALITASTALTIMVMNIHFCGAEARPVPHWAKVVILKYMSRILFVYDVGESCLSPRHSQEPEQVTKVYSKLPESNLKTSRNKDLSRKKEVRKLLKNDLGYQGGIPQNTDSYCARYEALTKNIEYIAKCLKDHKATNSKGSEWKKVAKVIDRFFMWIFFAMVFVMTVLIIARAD
T4 sequence (Q9JLB5 25-447 limits assumed): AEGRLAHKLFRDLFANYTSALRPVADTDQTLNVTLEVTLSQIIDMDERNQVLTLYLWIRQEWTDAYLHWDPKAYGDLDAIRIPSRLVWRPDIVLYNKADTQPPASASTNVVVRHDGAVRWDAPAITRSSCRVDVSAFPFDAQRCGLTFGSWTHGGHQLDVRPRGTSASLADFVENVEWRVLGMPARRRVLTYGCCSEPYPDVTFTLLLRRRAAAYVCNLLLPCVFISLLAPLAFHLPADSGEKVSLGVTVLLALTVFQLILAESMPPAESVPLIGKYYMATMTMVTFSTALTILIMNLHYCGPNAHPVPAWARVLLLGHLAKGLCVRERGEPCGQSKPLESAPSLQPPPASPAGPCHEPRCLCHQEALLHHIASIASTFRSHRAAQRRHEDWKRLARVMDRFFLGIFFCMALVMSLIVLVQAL
T2 sequence (Q05941 23-502 limits assumed): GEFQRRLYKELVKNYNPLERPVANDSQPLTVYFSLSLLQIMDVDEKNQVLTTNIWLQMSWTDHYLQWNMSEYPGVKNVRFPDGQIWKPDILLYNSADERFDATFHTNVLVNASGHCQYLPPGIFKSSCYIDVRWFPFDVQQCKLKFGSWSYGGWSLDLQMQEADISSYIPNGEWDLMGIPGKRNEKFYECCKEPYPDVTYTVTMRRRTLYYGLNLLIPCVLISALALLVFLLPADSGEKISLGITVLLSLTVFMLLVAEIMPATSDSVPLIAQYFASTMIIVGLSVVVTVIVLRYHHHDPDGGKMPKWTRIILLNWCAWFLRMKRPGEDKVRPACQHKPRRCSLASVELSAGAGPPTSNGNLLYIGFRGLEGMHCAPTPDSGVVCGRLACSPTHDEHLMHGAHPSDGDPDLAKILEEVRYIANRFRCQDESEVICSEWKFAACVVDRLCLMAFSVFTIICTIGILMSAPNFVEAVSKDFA
T3 sequence (P04757 26-499 limits assumed): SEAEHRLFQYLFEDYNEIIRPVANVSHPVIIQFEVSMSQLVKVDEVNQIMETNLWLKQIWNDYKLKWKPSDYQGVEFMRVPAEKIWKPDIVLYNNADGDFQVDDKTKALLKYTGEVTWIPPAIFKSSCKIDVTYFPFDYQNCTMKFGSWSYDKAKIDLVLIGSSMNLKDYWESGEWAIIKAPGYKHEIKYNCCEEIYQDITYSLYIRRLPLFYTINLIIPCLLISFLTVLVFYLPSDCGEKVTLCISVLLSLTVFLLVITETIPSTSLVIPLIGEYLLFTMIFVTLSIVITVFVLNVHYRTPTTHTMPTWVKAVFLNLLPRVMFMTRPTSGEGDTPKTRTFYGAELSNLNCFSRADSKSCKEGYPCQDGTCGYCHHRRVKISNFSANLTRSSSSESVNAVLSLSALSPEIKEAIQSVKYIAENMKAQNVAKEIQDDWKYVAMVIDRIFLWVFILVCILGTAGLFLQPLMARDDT
T3 sequence (P12392 21-495 limits assumed): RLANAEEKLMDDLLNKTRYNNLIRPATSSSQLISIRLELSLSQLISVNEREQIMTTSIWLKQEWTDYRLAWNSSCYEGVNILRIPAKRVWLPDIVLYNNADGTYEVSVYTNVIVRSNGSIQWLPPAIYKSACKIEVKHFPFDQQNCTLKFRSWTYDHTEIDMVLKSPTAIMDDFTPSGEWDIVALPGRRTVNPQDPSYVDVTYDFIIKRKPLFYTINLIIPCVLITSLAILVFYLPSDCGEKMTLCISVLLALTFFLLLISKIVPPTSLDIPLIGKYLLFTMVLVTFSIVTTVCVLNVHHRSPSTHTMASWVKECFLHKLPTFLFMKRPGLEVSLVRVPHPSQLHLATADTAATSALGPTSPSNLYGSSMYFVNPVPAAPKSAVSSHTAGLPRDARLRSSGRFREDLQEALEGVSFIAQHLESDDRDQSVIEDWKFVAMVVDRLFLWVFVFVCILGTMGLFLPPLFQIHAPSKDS
T1 sequence (P04757 26-499 limits assumed): as the sequence (P04757 26-499 limits assumed) above
T1 sequence (P12390 25-500 limits assumed): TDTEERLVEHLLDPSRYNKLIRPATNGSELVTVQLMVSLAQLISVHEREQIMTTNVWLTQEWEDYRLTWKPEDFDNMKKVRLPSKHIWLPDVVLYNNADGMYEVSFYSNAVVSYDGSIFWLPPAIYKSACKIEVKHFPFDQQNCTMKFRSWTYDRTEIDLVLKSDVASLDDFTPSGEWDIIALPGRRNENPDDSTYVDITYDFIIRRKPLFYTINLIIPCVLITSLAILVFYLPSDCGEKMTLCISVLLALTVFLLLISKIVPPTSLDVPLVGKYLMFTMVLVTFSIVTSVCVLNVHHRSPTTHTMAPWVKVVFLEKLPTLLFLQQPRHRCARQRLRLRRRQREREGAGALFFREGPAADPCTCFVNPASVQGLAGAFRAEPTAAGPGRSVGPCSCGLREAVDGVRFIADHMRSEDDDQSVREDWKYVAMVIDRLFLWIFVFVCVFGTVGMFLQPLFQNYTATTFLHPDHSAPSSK
T5 sequence (P12389 28-511 limits assumed): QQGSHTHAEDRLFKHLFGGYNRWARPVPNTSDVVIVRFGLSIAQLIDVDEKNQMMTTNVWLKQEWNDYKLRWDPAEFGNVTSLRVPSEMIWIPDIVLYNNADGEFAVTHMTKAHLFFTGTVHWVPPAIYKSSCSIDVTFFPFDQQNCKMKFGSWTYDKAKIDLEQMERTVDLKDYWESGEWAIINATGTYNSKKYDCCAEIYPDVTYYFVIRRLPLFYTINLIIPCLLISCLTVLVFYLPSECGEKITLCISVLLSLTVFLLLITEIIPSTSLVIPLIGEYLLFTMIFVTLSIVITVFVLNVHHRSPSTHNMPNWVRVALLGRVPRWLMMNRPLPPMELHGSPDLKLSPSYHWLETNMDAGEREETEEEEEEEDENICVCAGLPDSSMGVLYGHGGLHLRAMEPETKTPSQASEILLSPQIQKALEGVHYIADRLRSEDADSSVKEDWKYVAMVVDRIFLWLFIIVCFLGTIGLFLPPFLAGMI
T5 sequence (P12392 21-495 limits assumed): as the sequence (P12392 21-495 limits assumed) above

Structure (SMILES)	kon (rat nAChR α3β2 [1]) [M⁻¹ s⁻¹]	koff (rat nAChR α3β2 [1]; SEM) [s⁻¹]	IC50 (rat nAChR α7) [nM]	IC50 (rat nAChR α3β4) [nM]	IC50 (rat nAChR α9α10) [nM]	IC50 (rat nAChR α2β4)	IC50 (rat nAChR α3β2 [2]) [nM]	other results
CC(C)C[C@@H]1NC(=O)[C@H](CCC(=O)O)NC(=O)[C@@H]2CCCN2C(=O)[C@H](Cc2c[nH]cn2)NC(=O)[C@H](CC(N)=O)NC(=O)[C@H](C(C)C)NC(=O)[C@H](Cc2c[nH]cn2)NC(=O)[C@@H]2CSSC[C@H](NC(=O)[C@H](C)NC(=O)[C@@H]3CCCN3)C(=O)N[C@@H](CSSC[C@@H](C(N)=O)NC1=O)C(=O)N[C@@H]([C@@H](C)O)C(=O)N[C@@H](Cc1c[nH]cn1)C(=O)N1CCC[C@H]1C(=O)N[C@@H](C)C(=O)N2 [Mr1.7[E2A,S12N]] (H-PACCTHPACHVNHPELC-NH2; disulfide 3-9, 4-17)	73800	0.00173	591	556	> 10000	3490 nM	–	–
CC(C)C[C@@H]1NC(=O)[C@H](CCC(=O)O)NC(=O)[C@@H]2CCCN2C(=O)[C@H](Cc2c[nH]cn2)NC(=O)[C@H](CO)NC(=O)[C@H](C(C)C)NC(=O)[C@H](Cc2c[nH]cn2)NC(=O)[C@@H]2CSSC[C@H](NC(=O)[C@H](C)NC(=O)[C@@H]3CCCN3)C(=O)N[C@@H](CSSC[C@@H](C(N)=O)NC1=O)C(=O)N[C@@H]([C@@H](C)O)C(=O)N[C@@H](Cc1c[nH]cn1)C(=O)N1CCC[C@H]1C(=O)N[C@@H](C)C(=O)N2 [Mr1.7[E2A]] (H-PACCTHPACHVSHPELC-NH2; disulfide 3-9, 4-17)	86300	0.0028	> 10000	> 10000	> 10000	> 10000 nM	–	selectivity index (SI) for α3β2 (rat nAChR α3β2 [2]): > 847
CC(C)C[C@@H]1NC(=O)[C@H](CCC(=O)O)NC(=O)[C@@H]2CCCN2C(=O)[C@H](Cc2c[nH]cn2)NC(=O)[C@H](CC(N)=O)NC(=O)CNC(=O)[C@H](Cc2c[nH]cn2)NC(=O)[C@@H]2CSSC[C@H](NC(=O)CN)C(=O)N[C@@H](CSSC[C@@H](C(N)=O)NC1=O)C(=O)N[C@@H]([C@@H](C)O)C(=O)N[C@@H](Cc1c[nH]cn1)C(=O)N1CCC[C@H]1C(=O)N[C@@H](C)C(=O)N2 [Mr1.7[E2G,V11G,S12N,Δ1]] (H-GCCTHPACHGNHPELC-NH2; disulfide 2-8, 3-16; N-terminus assumed)	208000	0.00352	> 10000	125	> 10000	390 nM	–	50% recovery from block (rat nAChR α3β2 [1]): 3.3 min; t1/2 (rat nAChR α3β2 [1]): 3.286 (2.842–3.894) min; kobs (rat nAChR α3β2 [1]; SEM): 1.460 ± 0.2516 min⁻¹; α7/α3β2 (rat nAChR α7): >2272; α3β4/α3β2 (rat nAChR α3β4): 27; α9α10/α3β2 (rat nAChR α9α10): >2272; α2β4/α3β2 (rat nAChR α2β4): 89
CC(C)C[C@@H]1NC(=O)[C@H](CCC(=O)O)NC(=O)[C@@H]2CCCN2C(=O)[C@H](Cc2c[nH]cn2)NC(=O)[C@H](CO)NC(=O)[C@H](C(C)C)NC(=O)[C@H](C)NC(=O)[C@@H]2CSSC[C@H](NC(=O)[C@H](CCC(=O)O)NC(=O)[C@@H]3CCCN3)C(=O)N[C@@H](CSSC[C@@H](C(N)=O)NC1=O)C(=O)N[C@@H]([C@@H](C)O)C(=O)N[C@@H](Cc1c[nH]cn1)C(=O)N1CCC[C@H]1C(=O)N[C@@H](C)C(=O)N2 [Mr1.7[H10A]] (H-PECCTHPACAVSHPELC-NH2; disulfide 3-9, 4-17)	–	–	–	–	–	–	123	–
CC(C)C[C@@H]1NC(=O)[C@H](CCC(=O)O)NC(=O)[C@@H]2CCCN2C(=O)[C@H](C)NC(=O)[C@H](CO)NC(=O)[C@H](C(C)C)NC(=O)[C@H](Cc2c[nH]cn2)NC(=O)[C@@H]2CSSC[C@H](NC(=O)[C@H](CCC(=O)O)NC(=O)[C@@H]3CCCN3)C(=O)N[C@@H](CSSC[C@@H](C(N)=O)NC1=O)C(=O)N[C@@H]([C@@H](C)O)C(=O)N[C@@H](Cc1c[nH]cn1)C(=O)N1CCC[C@H]1C(=O)N[C@@H](C)C(=O)N2 [Mr1.7[H13A]] (H-PECCTHPACHVSAPELC-NH2; disulfide 3-9, 4-17; N-terminus assumed)	–	–	–	–	–	–	> 10000	–
CC(C)C[C@@H]1NC(=O)[C@H](CCC(=O)O)NC(=O)[C@@H]2CCCN2C(=O)[C@H](Cc2c[nH]cn2)NC(=O)[C@H](CO)NC(=O)[C@H](C(C)C)NC(=O)[C@H](Cc2c[nH]cn2)NC(=O)[C@@H]2CSSC[C@H](NC(=O)[C@H](CCC(=O)O)NC(=O)[C@H](C)N)C(=O)N[C@@H](CSSC[C@@H](C(N)=O)NC1=O)C(=O)N[C@@H]([C@@H](C)O)C(=O)N[C@@H](Cc1c[nH]cn1)C(=O)N1CCC[C@H]1C(=O)N[C@@H](C)C(=O)N2 [Mr1.7[P1A]] (H-AECCTHPACHVSHPELC-NH2; disulfide 3-9, 4-17)	–	–	–	–	–	–	42	–
CC(C)C[C@@H]1NC(=O)[C@H](CCC(=O)O)NC(=O)[C@@H]2CCCN2C(=O)[C@H](Cc2c[nH]cn2)NC(=O)[C@H](CC(N)=O)NC(=O)[C@H](C(C)C)NC(=O)[C@H](Cc2c[nH]cn2)NC(=O)[C@@H]2CSSC[C@H](NC(=O)[C@H](CCC(=O)O)NC(=O)[C@@H]3CCCN3)C(=O)N[C@@H](CSSC[C@@H](C(N)=O)NC1=O)C(=O)N[C@@H]([C@@H](C)O)C(=O)N[C@@H](Cc1c[nH]cn1)C(=O)N1CCC[C@H]1C(=O)N[C@@H](C)C(=O)N2 [Mr1.7[S12N]] (H-PECCTHPACHVNHPELC-NH2; disulfide 3-9, 4-17)	130000	0.00407	220	850	> 10000	370 nM and 367 nM	–	–
CC(C)C[C@@H]1NC(=O)[C@H](CCC(=O)O)NC(=O)[C@@H]2CCCN2C(=O)[C@H](Cc2c[nH]cn2)NC(=O)[C@H](CC(N)=O)NC(=O)CNC(=O)[C@H](Cc2c[nH]cn2)NC(=O)[C@@H]2CSSC[C@H](NC(=O)[C@H](CCC(=O)O)NC(=O)[C@@H]3CCCN3)C(=O)N[C@@H](CSSC[C@@H](C(N)=O)NC1=O)C(=O)N[C@@H]([C@@H](C)O)C(=O)N[C@@H](Cc1c[nH]cn1)C(=O)N1CCC[C@H]1C(=O)N[C@@H](C)C(=O)N2 [Mr1.7[V11G,S12N]] (H-PECCTHPACHGNHPELC-NH2; disulfide 3-9, 4-17)	–	–	–	–	–	–	28.4	–
CC(C)C[C@@H]1NC(=O)[C@H](CCC(=O)O)NC(=O)[C@@H]2CCCN2C(=O)[C@H](Cc2c[nH]cn2)NC(=O)[C@H](CO)NC(=O)CNC(=O)[C@H](Cc2c[nH]cn2)NC(=O)[C@@H]2CSSC[C@H](NC(=O)[C@H](CCC(=O)O)NC(=O)[C@@H]3CCCN3)C(=O)N[C@@H](CSSC[C@@H](C(N)=O)NC1=O)C(=O)N[C@@H]([C@@H](C)O)C(=O)N[C@@H](Cc1c[nH]cn1)C(=O)N1CCC[C@H]1C(=O)N[C@@H](C)C(=O)N2 [Mr1.7[V11G]] (H-PECCTHPACHGSHPELC-NH2; disulfide 3-9, 4-17)	–	–	–	–	–	–	138	–
CC(C)C[C@@H]1NC(=O)[C@H](CCC(=O)O)NC(=O)[C@@H]2CCCN2C(=O)[C@H](Cc2c[nH]cn2)NC(=O)[C@H](CO)NC(=O)[C@H](C(C)C)NC(=O)[C@H](Cc2c[nH]cn2)NC(=O)[C@@H]2CSSC[C@H](NC(=O)[C@H](CCC(=O)O)NC(=O)[C@@H]3CCCN3C(=O)[C@@H](N)CCCNC(=N)N)C(=O)N[C@@H](CSSC[C@@H](C(N)=O)NC1=O)C(=O)N[C@@H]([C@@H](C)O)C(=O)N[C@@H](Cc1c[nH]cn1)C(=O)N1CCC[C@H]1C(=O)N[C@@H](C)C(=O)N2 [RaaMr1.7] (H-RPECCTHPACHVSHPELC-NH2; disulfide 4-10, 5-18; N-terminus assumed)	–	–	–	–	–	–	41.2	–
